Entries after “also recorded” stand apart in the source; their conditions may differ.
Assays:
hepcidin [1] = conditions: hepcidin inducers; cited from earlier work
splenocytes from WT mice = assay: Iron stimulation of splenocytes, IL-6 secretion by ELISA; type: cell-based; conditions: iron treatment for 4 hours, vs untreated and hepcidin-treated cells, p<0.005; FIG. 10c
Protocol: Splenocytes were harvested from 10-week-old B6 male mice. After excising the spleen, red blood cells were lysed and the remaining splenocytes were seeded at 1×10^6 cells/mL in 24-well tissue culture plates and cultured under 5% CO2 at 37° C. for 24 hours. The culture medium consisted of RPMI 1640 medium supplemented with 10% fetal calf serum (FCS), 100 U/mL penicillin, 100 μg/mL streptomycin, 1% non-essential amino acids (Gibco/Life Technologies, Foster, Calif., USA), 2 mM L-glutamine (Sigma), and 50/μM 2-mercaptoethanol. After resting for 24 hours, the cells were treated with 10 μM […] (FAC), 1 μg/mL hepcidin or saline for 4 hours. The cell culture supernatants were harvested and quantified for the levels of IL-6 by ELISA (eBioscience).

animals models of AKI = conditions: cited from earlier work; for renal IRI severity: literature (37-39; 7, 37)
rat model of AI = conditions: AI induced with PG-APS; cited from earlier work
hepcidin [2] = conditions: within 2-5 days after the start of the treatment; cited from earlier work

CC(C)Oc1ccc2c(=O)c(-c3ccccc3)coc2c1 [ipriflavone]
active concentration, fold below that required for genistein's effect (hepcidin [1]): 10 fold

ferrous sulfate [reference compound]
IL-6 secretion into supernatants (splenocytes from WT mice): significantly increased splenocytes IL-6 secretion

CC(=O)N(O)CCCCCNC(=O)CCC(=O)N(O)CCCCCNC(=O)CCC(=O)N(O)CCCCCN [desferrioxamine]
protection in animal models of AKI (animals models of AKI; iron chelation): induces protection in diverse animals models of AKI | renal IRI severity (animals models of AKI): attenuate IRI; also recorded: provide protection and significantly improve its severity and outcomes

c1ccc2c(-c3cnn4cc(-c5ccc(N6CCNCC6)cc5)cnc34)ccnc2c1 [LDN-193189]
anemia of inflammation (AI) (rat model of AI): effectively reversed anemia

superoxide dismutase
renal IRI severity (animals models of AKI): attenuate IRI

O=C(CCCCCCC(=O)Nc1ccccc1)NO [vorinostat]
active concentration, fold below that required for genistein's effect (hepcidin [1]): 10 fold

low-molecular-weight heparin
decrease of serum hepcidin concentrations (hepcidin [2]): ~80%
